Experimental data as given in PubChem BioAssay AID256 (DTP/NCI, 2004).
Inconclusive results and toxic doses are left out. The calls were made as follows: active = survival T/C of 150% or more; inactive = T/C below 125% in these data.

Test system: CD2F1 mice, L1210 leukemia ip, survival T/C
Assay: NCI In Vivo Anticancer Drug Screen. Data for tumor model L1210 Leukemia (intraperitoneal) in CD2F1 (CDF1) mice
Settings: higher = longer survival
Summary of the method: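 Tumor-bearing mice (transplanted tumor) were split into treated and vehicle control groups, and the measured endpoint of each treated group was divided by that of its vehicle controls.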

[1] = endpoint: mean survival time, dose: 75.0 mg/kg/injection, schedule: Q01DX001 (ip), vehicle: saline
[2] = endpoint: mean survival time, dose: 300.0 mg/kg/injection, schedule: Q01DX001 (ip), vehicle: saline
[3] = endpoint: mean survival time, dose: 100.0 mg/kg/injection, schedule: Q01DX009 (ip), vehicle: saline with Tween-80
[4] = endpoint: mean survival time, dose: 200.0 mg/kg/injection, schedule: Q01DX009 (ip), vehicle: saline with Tween-80
[5] = endpoint: mean survival time, dose: 400.0 mg/kg/injection, schedule: Q01DX009 (ip), vehicle: saline with Tween-80
[6] = endpoint: mean survival time, dose: 100.0 mg/kg/injection, schedule: Q04DX003 (ip), vehicle: saline with Tween-80
[7] = endpoint: mean survival time, dose: 200.0 mg/kg/injection, schedule: Q04DX003 (ip), vehicle: saline with Tween-80
[8] = endpoint: mean survival time, dose: 400.0 mg/kg/injection, schedule: Q04DX003 (ip), vehicle: saline with Tween-80
[9] = endpoint: mean survival time, dose: 50.0 mg/kg/injection, schedule: Q01DX009 (ip), vehicle: saline with Tween-80

Measured: T/C

CC1OC(OC2C(O)CC(OC3C(O)CC(OC4CCC5(C)C(CCC6C5CCC5(C)C(C7=CC(=O)OC7)CCC65O)C4)OC3C)OC2C)CC(O)C1O (stereo unspecified)
inactive: endpoint: median survival time, dose: 0.5 mg/kg/injection, schedule: Q01DX005 (iv), vehicle: water 109 % of control | endpoint: median survival time, dose: 0.5 mg/kg/injection, schedule: Q01DX010 (ip), vehicle: water 106 % of control | endpoint: median survival time, dose: 1.0 mg/kg/injection, schedule: Q01DX005 (iv), vehicle: water 108 % of control | endpoint: median survival time, dose: 1.0 mg/kg/injection, schedule: Q01DX010 (ip), vehicle: water 108 % of control | endpoint: median survival time, dose: 1.0 mg/kg/injection, schedule: Q04DX003 (ip), vehicle: water 101 % of control | endpoint: median survival time, dose: 1.0 mg/kg/injection, schedule: Q04DX003 (iv), vehicle: water 111 % of control | endpoint: median survival time, dose: 2.0 mg/kg/injection, schedule: Q01DX005 (iv), vehicle: water 97 % of control | endpoint: median survival time, dose: 2.0 mg/kg/injection, schedule: Q01DX010 (ip), vehicle: water 109 % of control | endpoint: median survival time, dose: 2.0 mg/kg/injection, schedule: Q04DX003 (ip), vehicle: water 101 % of control | endpoint: median survival time, dose: 2.0 mg/kg/injection, schedule: Q04DX003 (iv), vehicle: water 109 % of control | endpoint: median survival time, dose: 4.0 mg/kg/injection, schedule: Q01DX005 (iv), vehicle: water 108 % of control | endpoint: median survival time, dose: 4.0 mg/kg/injection, schedule: Q01DX010 (ip), vehicle: water 108 % of control | endpoint: median survival time, dose: 4.0 mg/kg/injection, schedule: Q04DX003 (ip), vehicle: water 107 % of control | endpoint: median survival time, dose: 4.0 mg/kg/injection, schedule: Q04DX003 (iv), vehicle: water 110 % of control | endpoint: median survival time, dose: 8.0 mg/kg/injection, schedule: Q01DX005 (iv), vehicle: water 90 % of control | endpoint: median survival time, dose: 8.0 mg/kg/injection, schedule: Q04DX003 (ip), vehicle: water 98 % of control | endpoint: median survival time, dose: 8.0 mg/kg/injection, schedule: Q04DX003 (iv), vehicle: water 110 % of control | endpoint: median survival time, dose: 16.0 mg/kg/injection, schedule: Q04DX003 (ip), vehicle: water 101 % of control | endpoint: median survival time, dose: 16.0 mg/kg/injection, schedule: Q04DX003 (iv), vehicle: water 76 % of control

CCCCCCCCCCCCC1C(=O)NC(=O)NC1=O
inactive: [1] 100 % of control | endpoint: mean survival time, dose: 150.0 mg/kg/injection, schedule: Q01DX001 (ip), vehicle: saline 99 % of control | [2] 97 % of control

CC(C)/C(=N\Nc1ccc([N+](=O)[O-])cc1[N+](=O)[O-])c1ccccc1
inactive: [3] 97 % of control | [4] 101 % of control | [5] 103 % of control

NC(=O)c1[nH]cnc1/N=N/N(CCO)Cc1ccccc1
inactive: [6] 98 % of control | [7] 95 % of control | [8] 95 % of control

COC(=O)CCCCCCCCO
inactive: [3] 109 % of control | [6] 97 % of control | [4] 101 % of control | [7] 95 % of control | [5] 104 % of control | [8] 90 % of control

CC/C(=C\C=C\N(C)C)C(=O)OC
inactive: [9] 100 % of control | [3] 100 % of control | [4] 105 % of control

CCCc1nc2ccccc2c(=O)n1/N=C/c1ccsc1
inactive: endpoint: mean survival time, dose: 100.0 mg/kg/injection, schedule: Q01DX009 (ip), vehicle: saline sonified 100 % of control | endpoint: mean survival time, dose: 200.0 mg/kg/injection, schedule: Q01DX009 (ip), vehicle: saline sonified 102 % of control | endpoint: mean survival time, dose: 400.0 mg/kg/injection, schedule: Q01DX009 (ip), vehicle: saline sonified 93 % of control

CC(=O)Oc1ccc2ncccc2c1Cc1c(OC(C)=O)ccc2ncccc12
inactive: [1] 90 % of control | [2] 91 % of control

C(=C(\c1ccccc1)N1CCOCC1)/c1ccccc1
inactive: endpoint: mean survival time, dose: 100.0 mg/kg/injection, schedule: Q01DX001 (ip), vehicle: saline sonified 111 % of control | endpoint: mean survival time, dose: 100.0 mg/kg/injection, schedule: Q04DX002 (ip), vehicle: saline with Tween-80 93 % of control | endpoint: mean survival time, dose: 200.0 mg/kg/injection, schedule: Q01DX001 (ip), vehicle: saline sonified 104 % of control | endpoint: mean survival time, dose: 200.0 mg/kg/injection, schedule: Q04DX002 (ip), vehicle: saline with Tween-80 96 % of control | endpoint: mean survival time, dose: 400.0 mg/kg/injection, schedule: Q01DX001 (ip), vehicle: saline sonified 102 % of control | endpoint: mean survival time, dose: 400.0 mg/kg/injection, schedule: Q04DX002 (ip), vehicle: saline with Tween-80 96 % of control

CC1(c2ccccc2)CCc2ccccc21 (stereo unspecified)
inactive: [3] 97 % of control | [4] 95 % of control | [5] 95 % of control

Nc1ncnc2nc(SCc3ccccc3)[nH]c12
inactive: endpoint: mean survival time, dose: 12.5 mg/kg/injection, schedule: Q01DX009 (ip), vehicle: Klucel (hydroxypropylcellulose) (HPC) 112 % of control | endpoint: mean survival time, dose: 25.0 mg/kg/injection, schedule: Q01DX009 (ip), vehicle: Klucel (hydroxypropylcellulose) (HPC) 104 % of control | endpoint: mean survival time, dose: 50.0 mg/kg/injection, schedule: Q01DX009 (ip), vehicle: Klucel (hydroxypropylcellulose) (HPC) 100 % of control | endpoint: mean survival time, dose: 100.0 mg/kg/injection, schedule: Q01DX001 (ip), vehicle: Klucel (hydroxypropylcellulose) (HPC) 90 % of control

CCCC1([N+](=O)[O-])c2ccccc2-c2ccc([N+](=O)[O-])cc21 (stereo unspecified)
inactive: endpoint: mean survival time, dose: 100.0 mg/kg/injection, schedule: Q01DX001 (ip), vehicle: saline 98 % of control | endpoint: mean survival time, dose: 200.0 mg/kg/injection, schedule: Q01DX001 (ip), vehicle: saline 96 % of control | endpoint: mean survival time, dose: 400.0 mg/kg/injection, schedule: Q01DX001 (ip), vehicle: saline 92 % of control

C=C1[C@@H](C)[C@H]2[C@H](Cc3ccccc3)NC(=O)[C@]23OC(=O)/C=C/[C@H](O)CCC[C@@H](C)C/C=C/[C@H]3[C@@H]1O
inactive: endpoint: mean survival time, dose: 0.5 mg/kg/injection, schedule: Q04DX002 (ip), vehicle: Klucel (hydroxypropylcellulose) (HPC) 100 % of control | endpoint: mean survival time, dose: 1.0 mg/kg/injection, schedule: Q04DX002 (ip), vehicle: Klucel (hydroxypropylcellulose) (HPC) 103 % of control | endpoint: mean survival time, dose: 2.0 mg/kg/injection, schedule: Q04DX002 (ip), vehicle: Klucel (hydroxypropylcellulose) (HPC) 100 % of control | endpoint: mean survival time, dose: 4.0 mg/kg/injection, schedule: Q04DX002 (ip), vehicle: Klucel (hydroxypropylcellulose) (HPC) 103 % of control | endpoint: mean survival time, dose: 8.0 mg/kg/injection, schedule: Q04DX002 (ip), vehicle: Klucel (hydroxypropylcellulose) (HPC) 95 % of control

CCOC(=O)COC(CN)C(Cl)(Cl)Cl (stereo unspecified)
inactive: [6] 101 % of control | [7] 97 % of control

COCC(O)Cn1ccnc1[N+](=O)[O-] (stereo unspecified)
inactive: endpoint: mean survival time, dose: 12.5 mg/kg/injection, schedule: Q01DX009 (ip), vehicle: suspension in saline 102 % of control | endpoint: mean survival time, dose: 12.5 mg/kg/injection, schedule: Q01DX009 (ip), vehicle: water 100 % of control | endpoint: mean survival time, dose: 25.0 mg/kg/injection, schedule: Q01DX009 (ip), vehicle: suspension in saline 104 % of control | endpoint: mean survival time, dose: 25.0 mg/kg/injection, schedule: Q01DX009 (ip), vehicle: water 101 % of control | endpoint: mean survival time, dose: 50.0 mg/kg/injection, schedule: Q01DX009 (ip), vehicle: suspension in saline 104 % of control | endpoint: mean survival time, dose: 50.0 mg/kg/injection, schedule: Q01DX009 (ip), vehicle: water 103 % of control | endpoint: mean survival time, dose: 100.0 mg/kg/injection, schedule: Q01DX009 (ip), vehicle: suspension in saline 107 % of control | endpoint: mean survival time, dose: 100.0 mg/kg/injection, schedule: Q01DX009 (ip), vehicle: water 97 % of control | endpoint: mean survival time, dose: 200.0 mg/kg/injection, schedule: Q01DX009 (ip), vehicle: suspension in saline 104 % of control | endpoint: mean survival time, dose: 200.0 mg/kg/injection, schedule: Q01DX009 (ip), vehicle: water 103 % of control | endpoint: mean survival time, dose: 400.0 mg/kg/injection, schedule: Q01DX009 (ip), vehicle: suspension in saline 96 % of control | endpoint: mean survival time, dose: 400.0 mg/kg/injection, schedule: Q01DX009 (ip), vehicle: water 101 % of control

COc1cc(OC)c(NC(=O)Nc2ccccc2C(N)=O)cc1Cl
inactive: [9] 111 % of control | [3] 96 % of control | [4] 100 % of control

c1ccc(SSc2ccccc2)cc1
inactive: [6] 100 % of control
